Measured values reported in patent US20090137637A1, “Tetrazolyl-Methylene Amino Acid Derivatives” (PFIZER INC., priority 2005, published 2009).
Converted amounts (≈) assume the structure as drawn.

Columns and labels:
MMP-9 full-length = molecular target: T1, MMP-9 full-length (Homo sapiens, UniProt P14780); test: Thiopeptolide hydrolysis inhibition assay, MMP-9 full-length; assay type: biochemical; details: thiopeptolide substrate; read-out: MMP-9FL IC50
T1 construct: MMP-9 full-length
Description: (§1) In general, the MMP inhibition assays measure the amount by which a test compound reduces the hydrolysis of a thiopeptolide substrate catalyzed by a matrix metalloproteinase enzyme. Such assays are described in detail by Ye et al., in Biochemistry, 1992;31(45):11231-11235, which is incorporated herein by reference.
(§2) Thiopeptolide substrates show virtually no decomposition or hydrolysis at or below neutral pH in the absence of a matrix metalloproteinase enzyme. A typical thiopeptolide substrate commonly utilized for assays is Ac-Pro-Leu-Gly-thioester-Leu-Leu-Gly-OEt. A 100 μL assay mixture will contain 50 mM of N-2-hydroxyethylpiperazine-N′-2-ethanesulfonic acid buffer (“HEPES,” pH 7.0), 10 mM CaCl2, 100 μM thiopeptolide substrate, and 1 mM 5,5′-dithio-bis-(2-nitro-benzoic acid) (DTNB). The thiopeptolide substrate concentration may be varied, for example from 10 to 800 μM to obtain Km and Kcat values. The change in absorbance at 405 nm is monitored on a Thermo Max microplate reader (molecular Devices, Menlo Park, Calif.) at room temperature (22° C.). The calculation of the amount of hydrolysis of the thiopeptolide substrate is based on E412=13600 M^−1 cm^−1 for the DTNB-derived product 3-carboxy-4-nitrothiophenoxide. Assays are carried out with and without matrix metalloproteinase inhibitor compounds, and the amount of hydrolysis is compared for a determination of inhibitory activity of the test compounds.
(§3) Test compounds were evaluated at various concentrations in order to determine their respective IC50 values, the micromolar concentration of compound required to cause a 50% inhibition of catalytic activity of the respective enzyme.
(§4) The test described above for the inhibition of MMP-13 may also be adapted and used to determine the ability of the compounds of formula (I) to inhibit the matrix metalloproteases MMP-1, MMP-2, MMP-3, MMP-7, MMP-9, MMP-12, MMP-14, and MMP-17.
(§5) Certain compounds of formula (I) have been assayed with MMP-1 full-length, MMP-2 full-length, MMP-3 catalytic domain, MMP-7 full-length, MMP-8 catalytic domain, MMP-9 full-length, and MMP-12 catalytic domain.

[1] = Solubility in pH 6.5 aqueous phosphate buffer (Chemical Method 1, PDS solubility); assay type: physicochemical; details: thermodynamic from solid; saturated solution in pH 6.5 aqueous phosphate buffer, 5% glyme, UV-visible absorbance
Description: Solubility of a test compound of the present invention refers to solubility of the compound in a solvent mixture containing ethylene glycol dimethylether (“glyme”) and pH 6.5 aqueous phosphate buffer. The solubility was determined by measuring ultraviolet-visible absorbance of a saturated solution of the compound and comparing the absorbance value to absorbance values obtained for four standard solutions of the compound having known concentrations plotted on a 4-point ultraviolet-visible standard curve.
First, a saturated solution of the test compound of the present invention was prepared by adding from about 2- to about 5-mg of the compound to a 96-well plate and adding a volume of pH 6.5 aqueous phosphate buffer, sonicating the mixture for about 10 minutes, and then allowing it to equilibrate overnight (typically 12 to 24 hours). The saturated solution was visually inspected to ensure the presence of particles, and then filtered to give a filtrate of the saturated solution. The filtrate of the saturated solution and a blank (pH 6.5 aqueous phosphate buffer containing no test compound) were then transferred into separate wells in a 96-well UV-transparent disposable plate, and a small amount of glyme was added to each well to give 5% glyme concentration per well.
Standard solutions of the test compound were prepared by dissolving a known amount of the test compound in a known volume of 75/25 volume/volume (“v/v”) glyme/water, and diluting this solution into four different concentrations in 96-well plates with additional 75/25 v/v glyme/water. Then, aliquots from each of the four standard solutions were also transferred to the 96-well UV-transparent disposable plate containing pH 6.5 aqueous phosphate buffer until the glyme concentration in each well was 5%.
The prepared 96-well plate was transferred to a 96-well ultraviolet-visible plate reader, and the wells were scanned over wavelengths of from 220 nm to 350 nm with a step size of 2 nm. The ultraviolet-visible data (i.e., data generated at the same wavelength) were electronically exported to a spreadsheet and absorbance data for the filtrate of the saturated solution measured at one wavelength (i.e., the data that had the best linear fit as calculated by the highest regression coefficient, typically 0.98 or higher) and the corresponding standards absorbance data measured at the same wavelength were plotted as a standard absorbance-concentration curve based on the Lambert-Beer law. The solubility (i.e., saturation concentration) was then back calculated by comparing the absorbance of the filtrate of the saturated solution to the absorbance of the standard solutions of known concentrations at the same wavelength.

[2] = molecular target: MMP-13 catalytic domain (MMP-13CD) (Homo sapiens, UniProt P45452); test: Thiopeptolide hydrolysis inhibition assay, MMP-13 catalytic domain; assay type: biochemical; details: thiopeptolide substrate, HEPES pH 7.0, 22° C.
Description: as §1
Some of the particular methods described below use the catalytic domain of the MMP-13 enzyme, namely matrix metalloproteinase-13 catalytic domain (“MMP-13CD”), rather than the corresponding full-length enzyme, MMP-13. It has been shown previously by Ye Qi-Zhuang, Hupe D., and Johnson L. (Current Medicinal Chemistry, 1996;3:407418) that inhibitor activity against a catalytic domain of an MMP is predictive of the inhibitor activity against the respective full-length MMP enzyme.
as §2, §3

MMP-1 full-length = molecular target: T2, MMP-1 full-length (Homo sapiens, UniProt P03956); test: Thiopeptolide hydrolysis inhibition assay, MMP-1 full-length; assay type: biochemical; details: thiopeptolide substrate; read-out: MMP-1FL IC50
T2 construct: have been assayed with MMP-1 full-length
T2 sequence (P03956 100-469): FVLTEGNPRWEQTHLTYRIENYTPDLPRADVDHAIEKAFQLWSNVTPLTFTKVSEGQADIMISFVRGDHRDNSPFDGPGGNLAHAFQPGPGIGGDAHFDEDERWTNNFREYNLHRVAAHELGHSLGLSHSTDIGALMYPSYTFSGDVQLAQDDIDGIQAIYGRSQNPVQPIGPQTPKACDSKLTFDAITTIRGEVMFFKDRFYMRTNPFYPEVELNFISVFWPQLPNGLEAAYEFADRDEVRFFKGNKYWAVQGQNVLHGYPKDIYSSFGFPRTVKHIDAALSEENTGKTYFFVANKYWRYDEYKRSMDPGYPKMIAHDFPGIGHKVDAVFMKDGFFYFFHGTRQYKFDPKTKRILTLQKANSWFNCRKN
Description: as §1, §2, §3, §4, §5

MMP-2 full-length = molecular target: T3, MMP-2 full-length (Homo sapiens, UniProt P08253); test: Thiopeptolide hydrolysis inhibition assay, MMP-2 full-length; assay type: biochemical; details: thiopeptolide substrate; read-out: MMP-2FL IC50
T3 construct: MMP-2 full-length
T3 sequence (P08253 110-660): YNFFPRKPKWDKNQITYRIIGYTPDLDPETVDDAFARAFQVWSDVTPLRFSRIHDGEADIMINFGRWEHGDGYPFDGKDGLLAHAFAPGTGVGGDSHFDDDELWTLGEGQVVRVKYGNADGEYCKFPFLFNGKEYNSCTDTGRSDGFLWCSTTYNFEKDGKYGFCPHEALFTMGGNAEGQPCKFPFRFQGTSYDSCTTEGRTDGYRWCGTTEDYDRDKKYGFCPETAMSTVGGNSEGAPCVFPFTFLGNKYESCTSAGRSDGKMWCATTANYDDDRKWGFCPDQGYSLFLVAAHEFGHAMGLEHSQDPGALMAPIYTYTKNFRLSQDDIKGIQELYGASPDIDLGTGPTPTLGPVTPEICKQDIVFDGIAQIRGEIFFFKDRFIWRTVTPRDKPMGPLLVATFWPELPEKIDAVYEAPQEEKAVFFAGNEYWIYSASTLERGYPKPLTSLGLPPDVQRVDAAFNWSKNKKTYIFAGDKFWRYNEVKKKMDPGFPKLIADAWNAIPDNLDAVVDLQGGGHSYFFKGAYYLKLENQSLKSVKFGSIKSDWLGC
Description: as §1, §2, §3, §4, §5

MMP-7 full-length = molecular target: T4, MMP-7 full-length (Homo sapiens, UniProt P09237); test: Thiopeptolide hydrolysis inhibition assay, MMP-7 full-length; assay type: biochemical; details: thiopeptolide substrate; read-out: MMP-7FL IC50
T4 construct: MMP-7 full-length
T4 sequence (P09237 95-267): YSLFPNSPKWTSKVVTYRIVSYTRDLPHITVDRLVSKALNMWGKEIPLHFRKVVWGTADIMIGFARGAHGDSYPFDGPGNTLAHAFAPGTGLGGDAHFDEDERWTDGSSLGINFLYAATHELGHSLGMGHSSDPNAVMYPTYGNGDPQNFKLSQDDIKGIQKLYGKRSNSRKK
Description: as §1, §2, §3, §4, §5

MMP-12 catalytic domain = molecular target: T5, MMP-12 catalytic domain (Homo sapiens, UniProt P39900); test: Thiopeptolide hydrolysis inhibition assay, MMP-12 catalytic domain; assay type: biochemical; details: thiopeptolide substrate; read-out: MMP-12CD IC50
T5 construct: MMP-12 catalytic domain
T5 sequence (P39900 106-263 limits assumed, species assumed): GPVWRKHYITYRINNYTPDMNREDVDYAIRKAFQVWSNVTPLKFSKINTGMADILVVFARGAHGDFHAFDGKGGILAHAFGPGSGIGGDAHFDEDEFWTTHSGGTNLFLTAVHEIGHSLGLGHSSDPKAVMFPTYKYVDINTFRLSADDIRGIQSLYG
Description: as §1, §2, §3, §4, §5

MMP-8 catalytic domain = molecular target: T6, MMP-8 catalytic domain (Homo sapiens, UniProt P22894); test: Thiopeptolide hydrolysis inhibition assay, MMP-8 catalytic domain; assay type: biochemical; details: thiopeptolide substrate; read-out: MMP-8CD IC50
T6 construct: MMP-8 catalytic domain
T6 sequence (P22894 100-262 limits assumed, species assumed): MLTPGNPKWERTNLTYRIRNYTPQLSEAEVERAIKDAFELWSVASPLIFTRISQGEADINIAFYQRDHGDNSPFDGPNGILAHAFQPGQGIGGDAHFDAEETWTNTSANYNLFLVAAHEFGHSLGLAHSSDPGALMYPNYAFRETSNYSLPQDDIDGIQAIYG
Description: as §1, §2, §3, §5

MMP-3 catalytic domain = molecular target: T7, MMP-3 catalytic domain (Homo sapiens, UniProt P08254); test: Thiopeptolide hydrolysis inhibition assay, MMP-3 catalytic domain; assay type: biochemical; details: thiopeptolide substrate, MES pH 6.0; read-out: MMP-3CD IC50
T7 construct: MMP-3 catalytic domain
T7 sequence (P08254 100-272 limits assumed, species assumed): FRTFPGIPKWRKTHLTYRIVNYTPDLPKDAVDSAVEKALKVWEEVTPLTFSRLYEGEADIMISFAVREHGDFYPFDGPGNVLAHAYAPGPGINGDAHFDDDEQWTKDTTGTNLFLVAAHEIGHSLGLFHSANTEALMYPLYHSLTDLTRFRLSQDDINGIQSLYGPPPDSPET
Description: as §1, §2, §3
The assay buffer used with MMP-3CD was 50 mM N-morpholinoethane sulfonate (“MES”) at pH 6.0 rather than the HEPES buffer at pH 7.0 described above.
The test described above for the inhibition of MMP-13 may also be adapted and used to determine the ability of the compounds of formula (I) to inhibit the matrix metalloproteases MMP-1, MMP-2, MMP-3, MMP-7, MMP-9, MMP-12, MMP-14, and MMP-17. […]

T1 sequence (P14780 94-707, species assumed): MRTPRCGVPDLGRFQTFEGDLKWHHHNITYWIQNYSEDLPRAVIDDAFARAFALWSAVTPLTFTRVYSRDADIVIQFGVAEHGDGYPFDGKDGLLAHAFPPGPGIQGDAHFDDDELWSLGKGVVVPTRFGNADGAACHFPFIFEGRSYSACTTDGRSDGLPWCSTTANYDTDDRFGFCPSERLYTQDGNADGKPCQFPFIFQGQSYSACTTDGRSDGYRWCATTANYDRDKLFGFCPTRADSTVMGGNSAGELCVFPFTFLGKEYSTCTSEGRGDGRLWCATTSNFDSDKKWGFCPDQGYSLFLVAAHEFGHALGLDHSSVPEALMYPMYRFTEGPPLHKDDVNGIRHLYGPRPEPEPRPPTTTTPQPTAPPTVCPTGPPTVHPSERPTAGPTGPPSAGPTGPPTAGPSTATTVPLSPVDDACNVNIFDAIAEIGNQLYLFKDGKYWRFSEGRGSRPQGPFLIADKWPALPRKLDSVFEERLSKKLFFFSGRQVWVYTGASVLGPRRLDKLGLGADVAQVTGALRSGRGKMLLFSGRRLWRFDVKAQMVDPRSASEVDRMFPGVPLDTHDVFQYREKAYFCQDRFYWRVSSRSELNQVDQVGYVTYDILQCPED

For Cc1cc(-c2nnn(CC(=O)NCC(=O)O)n2)cc(C(=O)NCc2ccc(F)cc2)n1 [Example 1, (2-{5-[2-(4-fluoro-benzylcarbamoyl)-6-methyl-pyridin-4-yl]-tetrazol-2-yl}-acetylamino)-acetic acid], the IC50 (MMP-9 full-length) was over 100 µM, the solubility [1] was 580 µg/mL (≈ 1360 µM) and the IC50 [2] was 0.041 µM. For the same compound, the IC50 (MMP-1 full-length) was over 100 µM, the IC50 (MMP-2 full-length) was over 100 µM and the IC50 (MMP-7 full-length) was over 100 µM. It also gave an IC50 (MMP-12 catalytic domain) of over 100 µM, an IC50 (MMP-8 catalytic domain) of over 100 µM and an IC50 (MMP-3 catalytic domain) of over 100 µM.
Compound Cc1cc(-c2nnn(CC(=O)O)n2)cc(C(=O)NCc2ccc(F)cc2)n1 [Example I2, {5-[2-(4-fluoro-benzylcarbamoyl)-6-methyl-pyridin-4-yl]-tetrazol-2-yl}-acetic acid] has a solubility [1] of 880 µg/mL (≈ 2380 µM) and an IC50 [2] of 4.5 µM.
Cc1cc(-c2nnn(CC(=O)N3CCCC3C(=O)O)n2)cc(C(=O)NCc2ccc(F)cc2)n1 (stereo not drawn) [Example 3] showed a solubility [1] of 1200 µg/mL (≈ 2570 µM) and an IC50 [2] of 1.5 µM.
O=C(O)C1CCCN(CCCn2nnc(-c3cccc(C#CCc4ccc(F)cc4)c3)n2)C1 (stereo not drawn) [Example 4] gave an IC50 (MMP-9 full-length) of over 100 µM, an IC50 [2] of 5.2 µM and an IC50 (MMP-1 full-length) of over 100 µM. The IC50 (MMP-2 full-length) was over 100 µM, the IC50 (MMP-7 full-length) was over 100 µM and the IC50 (MMP-12 catalytic domain) was over 100 µM. It also gave an IC50 (MMP-8 catalytic domain) of over 100 µM and an IC50 (MMP-3 catalytic domain) of over 100 µM.
Cc1cc(-c2nnn(CC(=O)NCCC(=O)O)n2)cc(C(=O)NCc2ccc(F)cc2)n1 [Example 2, 3-(2-{5-[2-(4-Fluoro-benzylcarbamoyl)-6-methyl-pyridin-4-yl]-tetrazol-2-yl}-acetylamino)-propionic acid] showed an IC50 (MMP-9 full-length) of over 100 µM, a solubility [1] of 220 µg/mL (≈ 498 µM) and an IC50 [2] of 0.039 µM. It also gave an IC50 (MMP-1 full-length) of over 100 µM, an IC50 (MMP-2 full-length) of 75 µM and an IC50 (MMP-7 full-length) of over 100 µM. It also gave an IC50 (MMP-12 catalytic domain) of over 100 µM, an IC50 (MMP-8 catalytic domain) of over 100 µM and an IC50 (MMP-3 catalytic domain) of over 100 µM.
